Peptide text beside a SMILES is read from it.
Key:
[1] = system: human HaCaT keratinocyte cells; format: cell-based; conditions: MTT test, peptide C=0,1 mM (100 µM), 24 h incubation at 37 °C, 5% CO2, absorbance 570/690 nm, mean ± standard deviation (n = 5)
Procedure: (§1) Since the peptides predicted as CPPs are intended to be used as safe intracellular delivery systems, it is necessary to evaluate the degree of their toxicity to mammalian cells. For this purpose, the compounds investigated were added to human HaCaT keratinocyte cells and McCoy mouse fibroblast cells at a final concentration of 100 μM.
(§2) One of the most important criteria in the search for new penetrating peptides is to ensure the safety of their further use and to assess potential problems and risks. […] Therefore, we incubated human HaCaT keratinocyte and McCoy mouse fibroblast cells with our synthesized compounds at a final concentration of 100 μM for 24 h at 37 °C. […] The use of a fluorescent tag makes it possible to observe the penetration of the peptides as well as their distribution and localization within the cells. For this purpose, the synthesized compounds were conjugated with the fluorescent tag NBD-F and incubated with cells at a final concentration of […] for 4 h at 37 °C.
(§3) McCoy mouse fibroblast cell line (ATCC® CRL-1696™) was grown in a CO2 incubator at 37 °C, 5% CO2 in DMEM medium supplemented with 10% FBS and gentamicin (10 mkg/mL). Human immortalized keratinocyte line HaCaT cells (ATCC® PCS-200-011™) were grown in CO2-incubator at 37 °C, 5% CO2 in RPMI medium supplemented with 10% FBS and gentamicin (10 mkg/mL).
(§4) The cytotoxicity of the peptides was assessed using the MTT-test (3-(4,5-dimethylthiazol-2-yl)2,5-diphenyltetrazolium bromide) according to a standard protocol. McCoy, HaCaT cells were seeded in 96-well plates to a density of 5 × 10^3 cells and 3 × 10^3 cells in each well and incubated at 37 °C, 5% CO2 for 24 h. After 24 h incubation, the cells were washed with Hanks’ balanced salt solution (HBSS). The test peptides were tested at a final concentration of 100 µM in five replicates. Fresh culture medium without added peptides was used as a negative control. […] After adding 100 µL of the test compound to the cells, the samples were incubated at 37 °C, 5% CO2 for 24 h. Next, 10 µL of MTT working solution was added to each well, followed by incubating the cells for 4 h and adding 100 µL of solubilizing buffer to dissolve the formazan crystals. The amount of MTT was measured spectrophotometrically at 570 nm and 690 nm using a Multiskan Ascent microplate photometer (ThermoScientific, Waltham, MA, USA).
(§5) Results were processed using Microsoft Office Excel. During the evaluation of cell viability in the first step, the difference between the values obtained at 570 nm and 690 nm was found for each group of measurements. Then, dose-dependent curves were plotted for each cell line. […] The next step was to recalculate the values as a percentage of the positive control and obtain the mean values and standard deviation for each peptide.

[2] = system: McCoy mouse fibroblast cells; format: cell-based; conditions: MTT test, peptide C=0,1 mM (100 µM), 24 h incubation at 37 °C, 5% CO2, absorbance 570/690 nm, mean ± standard deviation (n = 5)
Procedure: as §1, §2, §3, §4, §5

| Structure (SMILES) | Percentage of Viable Cells, HaCaT [1] | Percentage of Viable Cells, McCoy [2] |
| --- | --- | --- |
| CSCC[C@H](NC(=O)[C@H](Cc1c[nH]cn1)NC(=O)[C@H](Cc1c[nH]c2ccccc12)NC(=O)[C@@H](NC(=O)[C@@H](N)CCCCN)[C@@H](C)O)C(=O)N[C@H](C(=O)N[C@@H](Cc1ccc(O)cc1)C(=O)N1CCC[C@H]1C(=O)NCC(=O)NCC(=O)N[C@@H](Cc1ccc(O)cc1)C(=O)N[C@@H](CC(=O)O)C(=O)N[C@@H](Cc1c[nH]cn1)C(=O)N[C@H](C(=O)N[C@@H](CCCNC(=N)N)C(=O)NCC(=O)O)[C@@H](C)O)C(C)C [CpOH10] (H-KTWHMVYPGGYDHTRG-OH) | 94.6 ± 3.3% | 94.4 ± 3.1% |
| CC(C)[C@H](NC(=O)[C@@H](N)[C@@H](C)O)C(=O)N[C@@H](C)C(=O)N[C@@H](CC(N)=O)C(=O)N[C@@H](Cc1ccccc1)C(=O)N[C@@H](CCCCN)C(=O)N[C@H](C(=O)N[C@@H](CC(N)=O)C(=O)N[C@@H](CO)C(=O)N[C@@H](C)C(=O)N[C@@H](C)C(=O)N1CCC[C@H]1C(=O)N1CCC[C@H]1C(=O)N[C@@H](C)C(=O)N[C@@H](C)C(=O)N[C@@H](CCC(=O)O)C(=O)N1CCC[C@H]1C(=O)N1CCC[C@H]1C(=O)N[C@@H](CCCNC(=N)N)C(=O)O)[C@@H](C)O [CpRE13] (H-TVANFKTNSAAPPAAEPPR-OH) | 90.6 ± 3.6% | 89.7 ± 3.3% |
| CC[C@H](C)[C@H](NC(=O)CN)C(=O)NCC(=O)N[C@@H](C)C(=O)N[C@H](C(=O)N[C@@H](CC(C)C)C(=O)N[C@@H](CCCCN)C(=O)N[C@H](C(=O)N[C@@H](CC(C)C)C(=O)N[C@H](C(=O)N[C@H](C(=O)NCC(=O)N[C@@H](CC(C)C)C(=O)N1CCC[C@H]1C(=O)N[C@@H](C)C(=O)N[C@@H](CC(C)C)C(=O)N[C@H](C(=O)N[C@@H](CO)C(=O)N[C@@H](Cc1c[nH]c2ccccc12)C(=O)N[C@H](C(=O)N[C@@H](CCCCN)C(=O)N[C@@H](CCCNC(=N)N)C(=O)N[C@@H](CCCCN)C(=O)N[C@@H](CCCNC(=N)N)C(=O)N[C@@H](CCC(N)=O)C(=O)N[C@@H](CCC(N)=O)C(N)=O)[C@@H](C)CC)[C@@H](C)CC)[C@@H](C)O)[C@@H](C)O)C(C)C)C(C)C [melittin, reference compound] | 0.1 ± 0.1% | 0.0% |
| CC(C)C[C@H](NC(=O)[C@H](CCC(N)=O)NC(=O)[C@H](Cc1c[nH]c2ccccc12)NC(=O)[C@H](Cc1c[nH]cn1)NC(=O)[C@H](CCCCN)NC(=O)[C@H](CCCCN)NC(=O)[C@H](CCC(N)=O)NC(=O)[C@H](CCCNC(=N)N)NC(=O)[C@H](Cc1ccc(O)cc1)NC(=O)[C@H](Cc1c[nH]cn1)NC(=O)[C@H](Cc1ccccc1)NC(=O)[C@H](Cc1ccc(O)cc1)NC(=O)[C@H](CCCNC(=N)N)NC(=O)[C@@H](N)CS)C(=O)O [CpHI4] (H-CRYFHYRQKKHWQL-OH) | 95.3 ± 3.5% | 95.5 ± 3.2% |
| CC[C@H](C)[C@H](NC(=O)[C@H](CCC(N)=O)NC(=O)[C@H](Cc1c[nH]c2ccccc12)NC(=O)[C@H](CCC(N)=O)NC(=O)[C@H](Cc1ccc(O)cc1)NC(=O)[C@@H](N)CO)C(=O)N[C@@H](Cc1ccccc1)C(=O)N[C@@H](Cc1ccc(O)cc1)C(=O)N[C@@H](CCCNC(=N)N)C(=O)N[C@@H](CO)C(=O)N[C@@H](CC(C)C)C(=O)N[C@@H](CC(=O)O)C(=O)NCC(=O)N[C@@H](CO)C(=O)NCC(=O)N[C@@H](C)C(=O)N[C@@H](CCCCN)C(=O)N[C@@H](CCC(=O)O)C(=O)O [CpRE12] (H-SYQWQIFYRSLDGSGAKE-OH) | 84.4 ± 4.0% | 87.6 ± 4.6% |
| CC[C@H](C)[C@H](NC(=O)[C@H](C)N)C(=O)N[C@@H](CCCNC(=N)N)C(=O)N[C@@H](CC(N)=O)C(=O)N[C@@H](CC(=O)O)C(=O)N[C@@H](CCC(=O)O)C(=O)N[C@@H](CCC(=O)O)C(=O)N[C@@H](CC(C)C)C(=O)N[C@@H](CC(N)=O)C(=O)N[C@@H](CCCCN)C(=O)O [CpHM6] (H-AIRNDEELNK-OH) | 92.2 ± 2.9% | 95.3 ± 3.4% |
| C[C@H](NC(=O)[C@H](C)NC(=O)[C@H](CCCCN)NC(=O)[C@@H](N)CO)C(=O)N[C@@H](CC(=O)O)C(=O)N[C@@H](CCC(=O)O)C(=O)N[C@@H](CO)C(=O)N[C@@H](CCC(=O)O)C(=O)N[C@@H](CCCNC(=N)N)C(=O)O [CpHM5] (H-SKAADESER-OH) | 93.8 ± 2.4% | 96.3 ± 3.4% |
